≈ marks a conversion by molar mass, not a printed value.
Assays:
[1] = cited from earlier work
[2] = Crystallization in patch films (visual observation); type: physicochemical
Experimental: The drug (EN) and the PEs, thiourea (TU) and propylene glycol (PG), were dissolved or uniformly dispersed in the pressure sensitive adhesive(s) (PSAs), and spread onto a release liner. The drug (EN) and the nail PE (TU) were weighed out in a glass bottle and dissolved in solvent (methanol) and vortexed for 1 min. Then PG was weighed and added as solubilizer for EN and plasticizer for the patch. The solution was vortexed with the methanol as solvent until a single phase was obtained. Afterwards, the hydrophobic plasticizers triethyl citrate and hydrophilic polymer polyvinylpyrrolidone were weighed and mixed with the solvents prior to addition of PG. Finally the polymer was weighed out into the glass bottle and vortexed for 5 min to form a homogenous mixture. The formulae for the patch include but are not limited to those in Table 3. The bottles were then placed on the bottle roller and mixed overnight at medium speed to complete the mixing and remove the air bubbles generated during vortexing the polymer. […]
The percentage of TU was maintained at a concentration off 1%. Three concentrations of EN (1% w/w, 2.5% w/w and 5% w/w) and three concentrations of PG (5% w/w, 10% w/w and 20% w/w) were evaluated. […] Then according to the EN and PG concentration determined from the DURO-TAK® 87-4098 films, fabricated patches using acrylate grades DURO-TAK® 87-2287, DURO-TAK® 87-4287 and DURO-TAK® 87-9301. […]

[3] = Drug release rate from acrylate patch; type: physicochemical
Experimental: The percentage of TU was maintained at a concentration off 1%. Three concentrations of EN (1% w/w, 2.5% w/w and 5% w/w) and three concentrations of PG (5% w/w, 10% w/w and 20% w/w) were evaluated. The acrylate films were first fabricated with DURO-TAK® 87-4098. The total weight of the mixture was 5 g. Methanol was the only solvent used for dissolving the components in the acrylates films. The purpose of this was to screen out what concentration of EN and PG could be added into the polymer to form an acceptable patch. Then according to the EN and PG concentration determined from the DURO-TAK® 87-4098 films, fabricated patches using acrylate grades DURO-TAK® 87-2287, DURO-TAK® 87-4287 and DURO-TAK® 87-9301.
Drug release from hydrophobic polymers is slow. The adhesives polymer used are hydrophobic polymers. To increase polymer chain mobility, the addition of a hydrophobic plasticizer was considered. Triacetin (TAC) and triethyl citrate (TEC) were the selected plasticizers. The adhesive polymer acrylate had been selected as the best polymer system. TAC or TEC was added into the acrylate polymer at three different levels. These were, 5%, 10% and 20% (based on the 5 g matrix weight).

[4] = In-vitro skin permeation, Franz diffusion cells; type: in vitro ADME, human
Excerpt: The patch was studied for the transdermal permeation of EN using human cadaver skin and Franz diffusion cells (FIG. 2A). Three films each with an area of 4 cm^2 square patch were cut from patch film. The skin was cut into 1.5 cm by 1.5 cm pieces, and mount on the Franz diffusion cells with orifice diameter of 9 mm (FIG. 2B). The release liner was removed from the films and the matrix surface was placed in contact with the skin. The area of 0.64 cm^2 of the skin was in contact with the receiving medium. The receiver compartment was sampled at 1, 2, 4, 8, 12 and 24 hr by withdrawing 0.5 mL of the receiving medium and replacing with equal volume of pH 7.4 PBS. At the end of 24 hr, epidermis and dermis were heat separated and extracted for EN content.

[5] = type: in vitro ADME, human
Experimental: The cadaver toenails were cut into 7 mm×7 mm (49 mm^2) pieces. The nail pieces were then hydrated at 100% RH overnight prior to start of experiment. The hydrated nail pieces were placed in the neoprene nail adapters (FIG. 2A) with orifice diameter of 5 mm. The receiver compartment was filled with pH 7.4 PBS (3 mL) containing 0.1% w/v gentamicin sulfate and the assembly was maintained at 32±1° C. throughout the duration of the experiment. Each sample was tested in triplicate. The patch in absence of thiourea was used as the control. The patches with diameter of 5 mm were cut. The release liner was removed and the drug matrix was placed in contact with the nail. The new patch was applied every 24 hrs for 14 days. Throughout the duration of the study, the Franz cells were dosed with a new patch daily. On the days 2, 4, 6, 8, 10, 12 and 14, 0.5 mL of the sample was withdrawn from the receiver compartment and replaced with equal volume of new receiving medium.

[6] = cited from earlier work; remark: listed apart in the source
[7] = tested on: dermatomycoses; settings: topical, dermatological studies, treatment period 2 to 6 weeks; cited from earlier work
[8] = cited from earlier work; remark: listed apart in the source
[9] = Drug saturation solubility study; settings: PVP 1% and 5% solution compared to phosphoric buffer pH 7.4 and pH 5 (P<0.05)
[10] = Nail penetration study in PVP solution; settings: 1% and 5% PVP group compared to phosphoric buffer pH 7.4 and pH 5 groups
[11] = tested on: Staphylococcus aureus; settings: cited from earlier work
[12] = tested on: Staphylococcus epidermidis; settings: cited from earlier work
[13] = tested on: Streptococcus pyogenes; settings: cited from earlier work
[14] = tested on: Streptococcus bovis; settings: cited from earlier work
[15] = tested on: Streptococcus faecalis; settings: cited from earlier work
[16] = tested on: Streptococcus faecium; settings: cited from earlier work
[17] = tested on: Corynebacterium diphtheria; settings: cited from earlier work
[18] = tested on: Listeria monocytogenes; settings: cited from earlier work
[19] = tested on: Bacillus subtilis; settings: cited from earlier work
[20] = tested on: plasma protein; settings: cited from earlier work

Row | Compound | aqueous solubility [1] | MIC [11] [µg/mL] | MIC [12] [µg/mL] | MIC [13] [µg/mL] | MIC [14] [µg/mL] | MIC [15] [µg/mL] | MIC [16] [µg/mL] | MIC [17] [µg/mL] | MIC [18] [µg/mL] | MIC [19] [µg/mL] | also measured
1 | Cc1cc(C2CCCCC2)n(O)c(=O)c1 [CPO, ciclopirox] | 1.4 mg/mL (≈ 6750 µM) |  |  |  |  |  |  |  |  |  | 
2 | Clc1ccc(COC(Cn2ccnc2)c2ccc(Cl)cc2Cl)cc1 (stereo not shown) [econazole nitrate, Econazole nitrate] | 1.5 micrograms/ml |  |  |  |  |  |  |  |  |  | crystallization in patch ([2]; acrylate PSA patch, drug load 5% w/w, no PG added): slight crystallization; crystallization in patch ([2]; acrylate patch screening, EN concentration raised to 5% w/w): crystallization occurred; drug release rate ([3]; acrylate patch in absence of PVP): 22.347 μg/cm^2/hour; drug release rate ([3]; acrylate patch with 1% PVP): 26.713 μg/cm^2/hour; drug release rate ([3]; acrylate patch with 5% PVP): 27.853 μg/cm^2/hour; drug amount in the receiver compartment ([4]; human cadaver skin, after 24 hours): no drug amount appeared; drug amount in the dermis ([4]; patch with thiourea vs without, 24 hr): no significant difference; drug amount in the epidermis ([4]; patch with thiourea, 24 hr): 5.63 ug/cm^2; drug amount in the epidermis ([4]; patch without thiourea, 24 hr): 1.73 ug/cm^2; drug amount in nail plate [5]: significantly increase; Water Solubility ([6]; at 19° C.): <0.1 g/100 mL at 19 °C; Log P [6]: 5.5; pKa [6]: 6.77; patients cured [7]: about 90%; topically applied drug remaining on the skin surface ([8]; as a cream, patients): about 90%; saturation solubility [9]: significantly higher; amount penetrated into the nail plate [10]: significantly higher
3 | Clc1ccc(COC(Cn2ccnc2)c2ccc(Cl)cc2Cl)cc1 (stereo not shown) [econazole] |  | 12.5 (≈ 32.7 µM) | 12.5 (≈ 32.7 µM) | 12.5 (≈ 32.7 µM) | 6.25 (≈ 16.4 µM) | 25 (≈ 65.5 µM) | 25 (≈ 65.5 µM) | 0.78 (≈ 2.04 µM) | 1.56 (≈ 4.09 µM) | 12.5 (≈ 32.7 µM) | unchanged drug in urine ([8]; human, in vivo): No unchanged econazole is detected; dose recovered in urine and feces ([8]; vaginal cream, over 96 hours): less than 3%; plasma protein binding [20]: greater than 98%
4 | Clc1ccc(COC(Cn2ccnc2)c2ccc(Cl)cc2Cl)c(Cl)c1 (stereo not shown) [miconazole base, miconazole] |  | 6.25 (≈ 15 µM) | 6.25 (≈ 15 µM) | 6.25 (≈ 15 µM) | 3.12 (≈ 7.5 µM) | 25 (≈ 60.1 µM) | 25 (≈ 60.1 µM) | 0.39 (≈ 0.937 µM) | 1.56 (≈ 3.75 µM) | 3.12 (≈ 7.5 µM) | 

Source: patent US12303491B2, “Econazole nitrate medical patch and methods of use thereof” (Temple University-Of The Commonwealth System of Higher …, priority 2017, dated 2025)
